Consider 8 molecules from patent US5030654A, “Glutaramide diuretic agents” (Pfizer Inc., priority 1986, dated 1991).

Broadly, the IC50 is the concentration that gives 50% inhibition.

In test [1] the target is T1, neutral endopeptidase E.C.3.4.24.11 (Rattus norvegicus, UniProt P07861).
T1 construct: neutral endopeptidase preparation from rat kidney; from tissue; host or cells: rat kidney
T1 sequence (P07861 1-750): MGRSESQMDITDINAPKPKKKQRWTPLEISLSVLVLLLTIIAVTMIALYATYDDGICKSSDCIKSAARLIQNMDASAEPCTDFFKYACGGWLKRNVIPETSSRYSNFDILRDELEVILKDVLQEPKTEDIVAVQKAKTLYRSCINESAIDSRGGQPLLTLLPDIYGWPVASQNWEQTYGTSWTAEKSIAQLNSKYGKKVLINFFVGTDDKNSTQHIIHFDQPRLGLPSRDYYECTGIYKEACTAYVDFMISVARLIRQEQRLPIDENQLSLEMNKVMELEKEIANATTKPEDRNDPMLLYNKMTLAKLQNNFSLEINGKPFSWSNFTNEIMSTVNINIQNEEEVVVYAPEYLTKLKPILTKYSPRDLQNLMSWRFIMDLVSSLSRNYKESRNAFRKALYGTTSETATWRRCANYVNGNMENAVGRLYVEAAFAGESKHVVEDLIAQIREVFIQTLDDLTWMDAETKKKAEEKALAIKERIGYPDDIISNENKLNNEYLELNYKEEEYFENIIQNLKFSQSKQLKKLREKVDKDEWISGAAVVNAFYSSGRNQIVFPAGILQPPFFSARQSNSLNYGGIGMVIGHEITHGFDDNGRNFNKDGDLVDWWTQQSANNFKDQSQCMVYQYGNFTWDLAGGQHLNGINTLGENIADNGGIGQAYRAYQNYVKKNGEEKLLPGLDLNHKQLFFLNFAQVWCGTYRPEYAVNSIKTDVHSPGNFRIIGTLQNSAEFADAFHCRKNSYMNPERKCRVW
Kind of test: inhibition of the neutral endopeptidase E.C.3.4.24.11 in vitro. Type of test: biochemical. As for the experimental part:
Activity against neutral endopeptidase E.C.3.4.24.11 is assessed using a procedure based on the assay described by J. T. Gafford, R. A. Skidgel, E. G. Erdos and L. B. Hersh, Biochemistry, 1983, […], 3265-3271. The method involves determining the concentration of compound required to reduce by 50% the rate of release of radiolabelled hippuric acid from hippuryl-L-phenylalanyl-L-arginine by a neutral endopeptidase preparation from rat kidney.
(§1) The activity of the racemate and separated enantiomers of the cis-4-{1-[2-carboxy-3-(2-methoxyethoxy)propyl]-1-cyclopentanecarboxamido}- 1-cyclohexanecarboxylic acid was assessed by measuring their ability to inhibit the neutral endopeptidase E.C.3.4.24.11 in vitro or to induce natriuresis in mice in vivo following the procedures described herein.
The compounds were assessed for their ability to inhibit the neutral endopeptidase E.C.3.4.24.11 following the procedure described herein.

Test [2] deals with male mice (Charles River CDl). Description: natriuresis in mice in vivo (saline loaded conscious mice). Further details: species or system mouse. The conditions noted are these: i.v. via tail vein, urine collected for two hours. On the procedure:
The activity of the compounds as diuretic agents is determined by measuring their ability to increase urine output and sodium ion excretion in saline loaded conscious mice. In this test, male mice (Charles River CDl, 22-28 g) are acclimatised and starved overnight in metabowls. The mice are dosed intravenously via the tail vein, with the test compound dissolved in a volume of saline solution equivalent to 2.5% of body weight. Urine samples are collected each hour for two hours in pre-weighed tubes and analysed for electrolyte concentration. Urine volume and sodium ion concentration from the test animals are compared to a control group which received only saline.
as §1

Setting [3] is: neutral endopeptidase E.C.3.4.24.11, rat kidney preparation (Example 454), read-out: IC50.
Setting [4] is: in vitro, neutral endopeptidase preparation from rat kidney, racemate and enantiomers (Example 445), read-out: IC50 against E.C.3.4.24.11.

Molecules are shown by their SMILES. Like-named read-outs stand apart in the source and are kept apart here.

Take `CCCCC1CC(NC(=O)C2(CC(CCOC)C(=O)O)CCCC2)CCC1C(=O)O` (centres unmarked) [Example 453, 3-[1-(c-4-Carboxy-c-3-butylcyclohexyl-r-1-carbamoyl)cyclopentyl]-2-(2-methoxyethyl)propanoic acid]: the IC50 in test [1] (setting [3]) turned out to be 8 nM.
Take `COCCOC[C@H](CC1(C(=O)N[C@H]2CC[C@@H](C(=O)O)CC2)CCCC1)C(=O)O` [(+) S, (S)-cis-4-{1-[2-Carboxy-3-(2-methoxyethoxy)propyl]-1-cyclopentanecarboxamido}-1-cyclohexanecarboxylic acid]: the “Natriuresis in mouse (i.v.)” value in test [2] is listed as “active at 1.5 mg/kg”. In test [1] (setting [4]), the IC50 came out at 39 nM.
In the case of `CCCCC1CC(NC(=O)C2(C[C@@H](COCCOC)C(=O)O)CCCC2)CCC1C(=O)O` (stereo partly drawn) [Example 451, 3-[1-(c-4-Carboxy-t-3-butyl-r-1-carbamoyl)cyclopentyl]-2S-(2-methoxyethoxymethyl)propanoic acid], the IC50 in test [1] (setting [3]) was determined as 7.9 nM.
Regarding `COCCC(CC1(C(=O)N[C@H]2CC[C@@H](C(=O)O)CC2)CCCC1)C(=O)O` (relative stereo) [Example 217, 3-{1-[(cis-4-Carboxy-cyclohexyl)carbamoyl]cyclopentyl}-2-(2-methoxyethyl)propanoic acid], the IC50 in test [1] (setting [3]) turned out to be 50 nM.
As to `COCCOC[C@@H](CC1(C(=O)N[C@H]2CC[C@@H](C(=O)O)CC2)CCCC1)C(=O)O` [(-) R, cis-4-{1-[2-carboxy-3-(2-methoxyethoxy)propyl]-1-cyclopentanecarboxamido}-1-cyclohexanecarboxylic acid], the “Natriuresis in mouse (i.v.)” value in test [2] was “inactive at 3 mg/kg”. For the same molecule, the concentration for half-maximal inhibition (IC50) in test [1] (setting [4]) was under 1000 nM.
Turning to `CCCCC1CC(NC(=O)C2(C[C@@H](COCCOC)C(=O)O)CCCC2)CCC1C(=O)O` (single isomer, unassigned; isomer a) [Example 449 isomer A, 3-[1-(c-4-Carboxy-c-3-butylcyclohexyl-r-1-carbamoyl)cyclopentyl]-2S-(2-methoxyethoxymethyl)propanoic acid], the concentration for half-maximal inhibition (IC50) in test [1] (setting [3]) was 3.6 nM.
Turning to `CCCCC1CC(NC(=O)C2(C[C@@H](COCCOC)C(=O)O)CCCC2)CCC1C(=O)O` (single isomer, unassigned) [Example 449 isomer B, 3-[1-(c-4-Carboxy-c-3-butylcyclohexyl-r-1-carbamoyl)cyclopentyl]-2S-(2-methoxyethoxymethyl)propanoic acid], in test [1] (setting [3]), the 50% inhibitory concentration (IC50) is 5.6 nM.
Consider `COCCOCC(CC1(C(=O)N[C@H]2CC[C@@H](C(=O)O)CC2)CCCC1)C(=O)O` (mixture of isomers) [(±) R,S, cis-4-{1-[2-carboxy-3-(2-methoxyethoxy)propyl]-1-cyclopentanecarboxamido}-1-cyclohexanecarboxylic acid], for which, in test [2], the “Natriuresis in mouse (i.v.)” value was “active at 3 mg/kg”. In test [1] (setting [4]), the half-inhibitory concentration (IC50) turned out to be 48 nM.
